According to US20110071158A1, “NEW COMPOUNDS” (BOEHRINGER INGELHEIM INTERNATIONAL GMBH, priority 2009, published 2011):

Assays:
[1] = molecular target: T1, PTK2 enzyme (Homo sapiens, UniProt Q05397); assay: PTK2 enzyme test, Assay 1 (DELFIA, poly-Glu-Tyr substrate, antibody PT60); format: biochemical; conditions: Assay 1 (values without *); 1 h pre-incubation, 2% DMSO
T1 construct: purchased Invitrogen PV3832
In short: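 Active PTK2 (0.01 µg/well) preincubated 1 h at RT with compound (duplicates, 2% DMSO final), then reacted 1 h at RT with poly(Glu,Tyr) 4:1 plus biotinylated poly(Glu,Tyr) and an ATP mix containing 50 μM ATP. EDTA-stopped, streptavidin-captured product detected by Eu-PT60 anti-phosphotyrosine DELFIA; IC50 by variable-Hill sigmoid fit.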

[2] = molecular target: T2, Xenopus laevis Aurora B/INCENP complex (Xenopus laevis, UniProt Q6DE08); assay: Aurora-B kinase assay (radioactive enzyme inhibition); format: biochemical
T2 construct: equipped at the N-terminal position with a GST tag (amino acids 60-361); GST (N, cleaved yes); made in house; host or cells: E. coli BL21 (DE3)
From the text: A radioactive enzyme inhibition assay was developed using E. coli-expressed recombinant Xenopus laevis Aurora B wild-type protein equipped at the N-terminal position with a GST tag (amino acids 60-361) in a complex with Xenopus laevis INCENP (amino acids 790-847), which is obtained from bacteria and purified. In equivalent manner a Xenopus laevis Aurora B mutant (G96V) in a complex with Xenopus laevis INCENP^790-847 may also be used.
The coding sequence for Aurora-B^60-361 from Xenopus laevis is cloned into a modified version of pGEX-6T (Amersham Biotech) via BamHI and SalI cutting sites. The vector contains two cloning cassettes which are separated by a ribosomal binding site, allowing bi-cistronic expression. In this configuration Xenopus laevis Aurora B is expressed by the first cassette, and the Xenopus laevis INCENP^790-847 is expressed by the second cassette. The resulting vector is pAUB-IN^847.
First of all the E. coli strain BL21 (DE3) is co-transformed with pUBS520 helper plasmid and pAUB-IN^847, after which protein expression is induced using 0.3 mM IPTG at an OD600 of 0.45-0.7. The expression is then continued for approx. 12-16 h at 23-25° C. with agitation.
The bacteria are then removed by centrifuging and the pellet is lysed in lysis buffer (50 mM Tris/Cl pH 7.6, 300 mM NaCl, 1 mM DTT, 1 mM EDTA, 5% glycerol, Roche Complete Protease Inhibitor tablets) using ultrasound, using 20-30 mL lysis buffer per litre of E. coli culture. The lysed material is freed from debris by centrifugation (12000 rpm, 45-60 min, JA20 rotor). The supernatant is incubated with […] of equilibrated GST Sepharose Fast Flow (Amersham Biosciences) per litre of E. coli culture for 4-5 h at 4° C. Then the column material is washed with 30 volumes of lysis buffer and then equilibrated with 30 volumes of cleavage buffer (50 mM Tris/Cl pH 7.6, 150 mM NaCl, 1 mM DTT, 1 mM EDTA). To cleave the GST tag from Aurora B, 10 units of Prescission Protease (Amersham Biosciences) are used per milligram of substrate and the mixture is incubated for 16 h at 4° C. The supernatant which contains the cleavage product is loaded onto a 6 mL Resource Q column (Amersham Biosciences) equilibrated with ion exchange buffer (50 mM Tris/Cl pH 7.6, 150 mM NaCl, 1 mM DTT, 1 mM EDTA). The Aurora B/INCENP complex is caught as it flows through, then concentrated and loaded onto a Superdex 200 size exclusion chromatography (SEC) column equilibrated with SEC buffer (10 mM Tris/Cl pH 7.6, 150 mM NaCl, 1 mM DTT, 1 mM EDTA). Fractions which contain the AuroraB/INCENP complex are collected and concentrated using Vivaspin concentrators (molecular weight exclusion 3000-5000 Da) to a final concentration of 12 mg/mL. Aliquots (e.g. 240 ng/μL) for kinase assays are transferred from this stock solution into freezing buffer (50 mM Tris/Cl pH 8.0, 150 mM NaCl, 0.1 mM EDTA, 0.03% Brij-35, 10% glycerol, 1 mM DTT) and stored at −80° C.
Test substances are placed in a polypropylene dish (96 wells, Greiner #655 201), in order to cover a concentration frame of 10 μM-0.0001 μM. The final concentration of DMSO in the assay is 5%. 30 μL of protein mix (50 mM Tris/Cl pH 7.5, 25 mM MgCl2, 25 mM NaCl, 167 μM ATP, 10 ng Xenopus laevis Aurora B/INCENP complex in freezing buffer) are pipetted into the 10 μl of test substance provided in 25% DMSO and this is incubated for 15 min at RT. Then 10 μL of peptide mix (100 mM Tris/Cl pH 7.5, 50 mM MgCl2, 50 mM NaCl, 5 μM NaF, 5 μM DTT, 1 μCi gamma-P33-ATP [Amersham], 50 μM substrate peptide [biotin-EPLERRLSLVPDS or multimers thereof, or biotin-EPLERRLSLVPKM or multimers thereof, or biotin-[…]]) are added. The reaction is incubated for 75 min (ambient temperature) and stopped by the addition of 180 μL of 6.4% trichloroacetic acid and incubated for 20 min on ice. […]

T2 sequence (Q6DE08 60-361): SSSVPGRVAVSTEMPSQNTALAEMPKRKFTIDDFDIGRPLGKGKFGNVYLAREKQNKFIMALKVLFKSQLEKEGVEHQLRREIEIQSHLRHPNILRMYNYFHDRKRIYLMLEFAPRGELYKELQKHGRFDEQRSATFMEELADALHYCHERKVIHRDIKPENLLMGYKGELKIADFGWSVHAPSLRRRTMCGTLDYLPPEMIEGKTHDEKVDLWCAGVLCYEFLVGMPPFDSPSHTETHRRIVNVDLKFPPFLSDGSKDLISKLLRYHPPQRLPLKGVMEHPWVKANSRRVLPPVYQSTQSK
T2 sequence (O13024 790-847 partner): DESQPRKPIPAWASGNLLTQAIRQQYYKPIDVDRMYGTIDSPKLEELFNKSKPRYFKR
T1 sequence (Q05397 whole entry): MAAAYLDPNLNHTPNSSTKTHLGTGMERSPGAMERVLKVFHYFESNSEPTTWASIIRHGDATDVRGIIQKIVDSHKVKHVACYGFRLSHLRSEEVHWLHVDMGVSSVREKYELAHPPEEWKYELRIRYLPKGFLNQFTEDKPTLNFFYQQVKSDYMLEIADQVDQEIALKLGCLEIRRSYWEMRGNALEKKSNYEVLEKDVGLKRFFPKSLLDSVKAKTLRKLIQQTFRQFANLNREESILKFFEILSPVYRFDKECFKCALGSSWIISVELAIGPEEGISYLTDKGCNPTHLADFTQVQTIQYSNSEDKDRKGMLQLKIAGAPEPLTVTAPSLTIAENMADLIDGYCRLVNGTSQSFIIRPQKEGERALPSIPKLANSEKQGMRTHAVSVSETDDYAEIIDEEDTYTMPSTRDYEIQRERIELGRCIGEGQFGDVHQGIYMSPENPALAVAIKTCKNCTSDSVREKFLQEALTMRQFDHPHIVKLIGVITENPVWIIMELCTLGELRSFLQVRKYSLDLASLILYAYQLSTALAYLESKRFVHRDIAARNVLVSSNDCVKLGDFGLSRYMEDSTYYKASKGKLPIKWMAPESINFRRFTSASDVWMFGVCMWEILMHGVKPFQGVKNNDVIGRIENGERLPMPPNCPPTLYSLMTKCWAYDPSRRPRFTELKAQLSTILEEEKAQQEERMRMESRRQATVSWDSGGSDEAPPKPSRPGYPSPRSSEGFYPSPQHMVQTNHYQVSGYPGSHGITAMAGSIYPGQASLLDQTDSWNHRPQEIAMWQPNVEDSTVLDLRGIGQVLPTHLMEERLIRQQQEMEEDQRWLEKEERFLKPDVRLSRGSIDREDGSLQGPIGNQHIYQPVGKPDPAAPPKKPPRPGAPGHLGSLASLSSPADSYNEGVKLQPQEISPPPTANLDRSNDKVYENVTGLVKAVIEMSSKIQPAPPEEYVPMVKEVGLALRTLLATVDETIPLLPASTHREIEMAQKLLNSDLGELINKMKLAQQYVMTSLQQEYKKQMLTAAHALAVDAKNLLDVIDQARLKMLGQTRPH

IC50 [1] [nM] | IC50 [2] [nM] | Compound
0.8 | 280 | COc1cc(C(=O)NC2CCN(C)CC2)ccc1Nc1ncc(C(F)(F)F)c(N[C@@H]2CCCC[C@H]2N(C)S(C)(=O)=O)n1 [Example I-90, 4-{4-[(1R,2R)-2-(methanesulphonyl-methyl-amino)-cyclohexylamino]-5-trifluoromethyl-pyrimidin-2-ylamino}-3-methoxy-N-(1-methyl-piperidin-4-yl)-benzamide]
0.86 | 4040 | COc1cc(C(=O)NC2CCN(C)CC2)c(C)cc1Nc1ncc(C(F)(F)F)c(N[C@@H]2CCCC[C@H]2N(C)S(C)(=O)=O)n1 [Example I-93]
1 | 1030 | CNC(=O)c1cc(OC)c(Nc2ncc(C(F)(F)F)c(N[C@@H]3CCCC[C@H]3N(C)S(C)(=O)=O)n2)cc1Cl [Example I-135]
4 | 167 | COc1cc(NC(C)=O)ccc1Nc1ncc(C(F)(F)F)c(N[C@@H]2CCCC[C@H]2N(C)S(C)(=O)=O)n1 [Example I-165]
0.9 | 265 | COc1cc(C(=O)NC2CCN(C)CC2)ccc1Nc1ncc(C(F)(F)F)c(N[C@@H]2CCC[C@H]2NS(C)(=O)=O)n1 [Example I-126, 4-[4-((1R,2R)-2-methanesulphonylamino-cyclopentylamino)-5-trifluoromethyl-pyrimidin-2-ylamino]-3-methoxy-N-(1-methyl-piperidin-4-yl)-benzamide]
0.81 | 241 | COc1cc(C(=O)NC2CCN(C)CC2)ccc1Nc1ncc(C(F)(F)F)c(N[C@@H]2CCC[C@H]2N(C)S(C)(=O)=O)n1 [Example I-124, 4-{4-[(1R,2R)-2-(methanesulphonyl-methyl-amino)-cyclopentylamino]-5-trifluoromethyl-pyrimidin-2-ylamino}-3-methoxy-N-(1-methyl-piperidin-4-yl)-benzamide]
0.79 | > 5000 | COc1cc(C(=O)NC2CCN(C)CC2)c(Cl)cc1Nc1ncc(C(F)(F)F)c(N[C@@H]2CCCC[C@H]2N(C)S(C)(=O)=O)n1 [Example I-128]
